Source: patent US20060135618A1, “Medicine comprising a thiourea for use as depigmenting agent or anti-mutagenic and anti-carcinogenic agent” (priority 2002, published 2006)

Experiments:
[1] = test system: melanin-producing human melanocyte-keratinocyte co-cultures; test: Depigmenting effect: melanin extraction from pigmented epidermis co-cultures; format: cell-based; details: for Inhibition % of the melanin in the co-cultures: 2.8 mM in culture medium for 21 days; for inhibition at 2800 µM: read-out: Inhibition % of the melanin in the co-cultures
Method: The culture media are also supplied by this manufacturer.
Extraction is carried out on a pool of two culture wells, which are homogenized in 0.45 ml of sodium dodecyl sulphate (SDS) at 1% containing 0.05 mM of EDTA and 10 mM of Tris HCl (amino-2-(hydroxymethyl)-2-propanediol-1,3), pH 6.8. Add 20 μl of proteinase K at 5 mg/ml to each homogenate. Digest over night at 45° C. Then add a further 20 μl of proteinase K and continue incubation for 4 hours. Then add 50 μl of 0.5 M solution of sodium carbonate and 10 μl of a 30% solution of hydrogen peroxide. Maintain the specimens at 80° C. for 30 min and then cool them. Extract the specimens with 100 μl of a chloroform-methanol mixture (2:1, v/v). After centrifugation at 10,000 g for 10 min, measure the optical density of the supernatant at 405 nm. The products are compared in Table 1 below (the results are expressed as percentage inhibition of the melanin in the co-cultures): […]

[2] = test system: Salmonella typhimurium TA 104 recN2-4; test: Vitotox test, antimutagenic effect against MMS (methylmethanesulphonate); format: cell-based
Method: After incubation of the bacteria with a genotoxic product, the recN promoter is derepressed and the lux operon is expressed: emission of light, the said emission being proportional to the genotoxicity of the product. Some products act directly on the production of light or increase the metabolism of the bacteria, creating false positives. […] The same strain is used as cytotoxicity control (false negatives).
• In order to test the antimutagenic effect against genotoxic molecules, a genotoxic molecule, methylmethanesulphonate (MMS), is used, which is compared against the genotoxicity of a mixture of reference mutagenic molecules, 4-nitroquinoline oxide and benzo(a)pyrene. MMS is placed alone or mixed with bis MsoBT at increasing concentrations and the emissions of light are compared. […] The test product is used with or without metabolic activation (fraction S9: microsomal homogenate containing cytochrome P450: […] final). • The kinetics of emission of light, as a function of the genotoxicity and of the cytotoxicity of the product, is measured for 3 hours (measurements every 5 minutes) with a Fluoroskan Ascent FL (bermnoLabsystems). • The products are supplied by the companies Sigma-Aldrich. […]

[3] = test system: Salmonella typhimurium TA 104 recN2-4; test: Vitotox test, antimutagenic effect against UVB; format: cell-based; details: cultures irradiated for 20 s, 254 nm, without MMS

CNC(=S)NC [Dimethylthiourea, dimethylthiourea, reference compound]
Inhibition % of the melanin in the co-cultures [1]: 36%

O=c1cc(CO)occ1O [Kojic acid, reference compound]
inhibition at 35000 µM ([1]; Homo sapiens, 504 h, 35 mM in culture medium for 21 days): 32%

C[S+]([O-])CCCCNC(=S)NCCCCS(C)(=O)=O (stereo not shown) [MSBMSBT, 1-(5-methanesulphinylbutyl)-3-(5-methanesulphonylbutyl)-thiourea]
inhibition at 2800 µM ([1]; Homo sapiens, 504 h): 18%

C[S+]([O-])CCCCNC(=S)NCCCC[S+](C)[O-] (stereo not shown) [bis MSiBT, 1,3-bis-(5-methanesulphinylbutyl)-thiourea]
Inhibition % of the melanin in the co-cultures [1]: 7.5%

CS(=O)(=O)CCCCNC(=S)NCCCCS(C)(=O)=O [bis MSoBT, 1,3-bis-(5-methanesulphonylbutyl) thiourea]
inhibition at 2800 µM ([1]; Homo sapiens, 504 h): 29.6% | necessary concentration for approx. 30% melanin inhibition, times lower than for kojic acid ([1]; relative to kojic acid): 25 times | inhibitory concentration 50 of the mutagenic effect of MMS ([2]; with S9): 20 ppm | inhibitory concentration 50 of the mutagenic effect of MMS ([2]; without S9): 17 ppm | inhibitory concentration 50 of the mutagenic effect induced by UVB [3]: 25 ppm | melting point: 142 °C
